Here are results for 35 compounds from US11608337B2, “Heterocyclic compounds as immunomodulators” (Incyte Corporation, priority 2016, dated 2023).

The structures appear in SMILES notation.

PD-1/PD-L1 protein/protein interaction, sequence (Q9NZQ7 19-238): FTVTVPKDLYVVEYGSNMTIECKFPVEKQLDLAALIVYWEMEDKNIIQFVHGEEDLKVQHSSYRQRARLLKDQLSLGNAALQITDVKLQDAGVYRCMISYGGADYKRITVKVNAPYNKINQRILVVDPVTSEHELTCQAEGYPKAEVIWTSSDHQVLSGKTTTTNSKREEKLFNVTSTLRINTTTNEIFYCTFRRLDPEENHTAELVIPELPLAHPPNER

This assay concerns the target PD-1/PD-L1 protein/protein interaction (Homo sapiens (Human), UniProt Q9NZQ7). The experiment in a line: PD-1/PD-L1 Homogeneous Time-Resolved Fluorescence (HTRF) Binding Assay. Particulars: recombinant human PD-L1 (19-238) His-tag, human PD-1 (25-167) Fc tag; 25° C., PBS pH 7.4. The method, then: Example A. PD-1/PD-L1 Homogeneous Time-Resolved Fluorescence (HTRF) Binding Assay
The assays were conducted in a standard black 384-well polystyrene plate with a final volume of 20 μL. Inhibitors were first serially diluted in DMSO and then added to the plate wells before the addition of other reaction components. The final concentration of DMSO in the assay was 1%. The assays were carried out at 25° C. in the PBS buffer (pH 7.4) with 0.05% Tween-20 and 0.1% BSA. Recombinant human PD-L1 protein (19-238) with a His-tag at the C-terminus was purchased from AcroBiosystems (PD1-H5229). Recombinant human PD-1 protein (25-167) with Fc tag at the C-terminus was also purchased from AcroBiosystems (PD1-H5257). PD-L1 and PD-1 proteins were diluted in the assay buffer and 10 μL was added to the plate well. Plates were centrifuged and proteins were preincubated with inhibitors for 40 minutes. The incubation was followed by the addition of 10 μL of HTRF detection buffer supplemented with Europium cryptate-labeled anti-human IgG (PerkinElmer-AD0212) specific for Fc and anti-His antibody conjugated to SureLight®-Allophycocyanin (APC, PerkinElmer-AD0059H). After centrifugation, the plate was incubated at 25° C. for 60 min. before reading on a PHERAstar FS plate reader (665 nm/620 nm ratio). Final concentrations in the assay were […], 10 nM PD-L1, 1 nM europium anti-human IgG and 20 nM anti-His-Allophycocyanin. IC50 determination was performed by fitting the curve of percent control activity versus the log of the inhibitor concentration using the GraphPad Prism 5.0 software.
Data obtained for the Example compounds using the PD-1/PD-L homogenous time-resolved fluorescence (HTRF) binding assay described in Example A is provided in Table 1.
On to `Cc1c(-c2ccccc2)cccc1-n1cc2c(n1)CCNC2` [Example 17, 2-(2-methylbiphenyl-3-yl)-4,5,6,7-tetrahydro-2H-pyrazolo[4,3-c]pyridine], for which the half-maximal inhibitory concentration (IC50) (commonly the concentration at which inhibition is half-maximal) is 100 to 500 nM.
Next, `Cc1c(-c2nc3c(s2)CNCC3)ccnc1-c1ccc2c(c1)OCCO2` [Example 26, 2-[2-(2,3-dihydro-1,4-benzodioxin-6-yl)-3-methylpyridin-4-yl]-4,5,6,7-tetrahydro[1,3]thiazolo[5,4-c]pyridine]: 500 to 10000 nM; `Cc1c(-c2cccc(C(N)=O)c2)cccc1-c1nc2c(s1)CNCC2` [Example 38, 2′-methyl-3′-(4,5,6,7-tetrahydro[1,3]thiazolo[5,4-c]pyridin-2-yl)biphenyl-3-carboxamide]: at most 100 nM.
Then `Cc1c(-c2ccc(F)cn2)cccc1-c1nc2c(s1)CNCC2` [Example 31, 2-[3-(5-fluoropyridin-2-yl)-2-methylphenyl]-4,5,6,7-tetrahydro[1,3]thiazolo[5,4-c]pyridine], with 500 to 10000 nM; and `Cc1c(-c2ccc3c(c2)OCCO3)ccnc1-c1nc2c(s1)CNCC2` [Example 16, 2-[4-(2,3-dihydro-1,4-benzodioxin-6-yl)-3-methylpyridin-2-yl]-4,5,6,7-tetrahydro[1,3]thiazolo[5,4-c]pyridine], with at most 100 nM; and `Cc1c(-c2ccccc2)cccc1-c1cc2n(n1)CCNC2` [Example 12, 2-(2-methylbiphenyl-3-yl)-4,5,6,7-tetrahydropyrazolo[1,5-a]pyrazine], with 100 to 500 nM.
As for `Cc1c(-c2ccccc2)cccc1-c1nc2c(s1)CCNC2` [Example 1, 2-(2-methylbiphenyl-3-yl)-4,5,6,7-tetrahydro[1,3]thiazolo[4,5-c]pyridine], the IC50 is 500 to 10000 nM.
As to `N#Cc1c(-c2ccc3c(c2)OCCO3)cccc1-c1nc2c(s1)CNCC2` [Example 13, 2-(2,3-dihydro-1,4-benzodioxin-6-yl)-6-(4,5,6,7-tetrahydro[1,3]thiazolo[5,4-c]pyridin-2-yl)benzonitrile], the IC50 is at most 100 nM.
For `Cc1c(-c2ccccc2)cccc1-c1nc2c(o1)CCNC2` [Example 23, 2-(2-methylbiphenyl-3-yl)-4,5,6,7-tetrahydro[1,3]oxazolo[4,5-c]pyridine], the IC50 was at most 100 nM.
Then `Cc1c(-c2ccccc2)cccc1-c1nc2c([nH]1)CCNC2` [Example 21, 2-(2-methylbiphenyl-3-yl)-4,5,6,7-tetrahydro-1H-imidazo[4,5-c]pyridine], with 500 to 10000 nM.
Turning to `Cc1c(-c2nc3c(s2)CNCC3)cccc1-c1cccc2c1cnn2C` [Example 40, 2-[2-methyl-3-(1-methyl-1H-indazol-4-yl)phenyl]-4,5,6,7-tetrahydro[1,3]thiazolo[5,4-c]pyridine], the IC50 was at most 100 nM.
In the case of `Cc1c(-c2ccccc2)ccnc1-c1nc2c(s1)CNCC2` [Example 14, 2-(3-methyl-4-phenylpyridin-2-yl)-4,5,6,7-tetrahydro[1,3]thiazolo[5,4-c]pyridine], the IC50 was at most 100 nM.
Then `COc1cc(OC)cc(-c2cccc(-c3nc4c(s3)CNCC4)c2C)c1` [Example 34, 2-(3′,5′-dimethoxy-2-methylbiphenyl-3-yl)-4,5,6,7-tetrahydro[1,3]thiazolo[5,4-c]pyridine], with at most 100 nM.
As for `Cc1c(-c2ccccc2)cccc1-c1nc2c(s1)CNCC2(C)C` [Example 19, 7,7-dimethyl-2-(2-methylbiphenyl-3-yl)-4,5,6,7-tetrahydro[1,3]thiazolo[5,4-c]pyridine], the IC50 lay in the range of 500 to 10000 nM.
Then `Cc1c(-c2cccc(CC(N)=O)c2)cccc1-c1nc2c(s1)CNCC2` [Example 39, 2-[2′-methyl-3′-(4,5,6,7-tetrahydro[1,3]thiazolo[5,4-c]pyridin-2-yl)biphenyl-3-yl]acetamide], with at most 100 nM; and `Cc1c(-c2ccccc2)cccc1-c1nc2c(s1)CN(CCO)CC2` [Example 4, 2-[2-(2-methylbiphenyl-3-yl)-6,7-dihydro[1,3]thiazolo[5,4-c]pyridin-5(4H)-yl]ethanol], with at most 100 nM.
As for `Cc1c(-c2ccccc2)cccc1-c1nc2c(o1)CCN(C)C2` [Example 24, 5-methyl-2-(2-methylbiphenyl-3-yl)-4,5,6,7-tetrahydro[1,3]oxazolo[4,5-c]pyridine], the IC50 was at most 100 nM.
Next, `Cc1c(C2=CCOCC2)cccc1-c1nc2c(s1)CNCC2` [Example 29, 2-[3-(3,6-dihydro-2H-pyran-4-yl)-2-methylphenyl]-4,5,6,7-tetrahydro[1,3]thiazolo[5,4-c]pyridine]: 500 to 10000 nM; `Cc1c(-c2ccccc2)cccc1-c1nc2c(s1)CN(C1CCC(CC#N)CC1)CC2` (centres unmarked) [Example 11, {4-[2-(2-methylbiphenyl-3-yl)-6,7-dihydro[1,3]thiazolo[5,4-c]pyridin-5(4H)-yl]cyclohexyl}acetonitrile]: 100 to 500 nM; `Cc1c(-c2ccsc2)cccc1-c1nc2c(s1)CNCC2` [Example 27, 2-[2-methyl-3-(3-thienyl)phenyl]-4,5,6,7-tetrahydro[1,3]thiazolo[5,4-c]pyridine]: 100 to 500 nM.
Next, `COc1cccc(-c2cccc(-c3nc4c(s3)CNCC4)c2C)c1` [Example 28, 2-(3′-methoxy-2-methylbiphenyl-3-yl)-4,5,6,7-tetrahydro[1,3]thiazolo[5,4-c]pyridine]: at most 100 nM; `Cc1c(-c2ccccc2)cccc1-c1cn2c(n1)CNCC2` [Example 20, 2-(2-methylbiphenyl-3-yl)-5,6,7,8-tetrahydroimidazo[1,2-a]pyrazine]: 500 to 10000 nM; `Cc1c(-c2ccccc2)cccc1-c1nc2c(s1)CNCC2` [Example 2, 2-(2-methylbiphenyl-3-yl)-4,5,6,7-tetrahydro[1,3]thiazolo[5,4-c]pyridine]: at most 100 nM.
Next, `Cc1c(-c2ccccc2)cccc1-c1nc2c(s1)CN(C[C@@H]1C[C@H]1C(=O)O)CC2` (relative stereo) [Example 9, Trans-2-{[2-(2-methylbiphenyl-3-yl)-6,7-dihydro[1,3]thiazolo[5,4-c]pyridin-5(4H)-yl]methyl}cyclopropanecarboxylic acid]: 100 to 500 nM.
Turning to `COc1cccc(-c2ccnc(-c3nc4c(s3)CNCC4)c2C)c1` [Example 15, 2-[4-(3-methoxyphenyl)-3-methylpyridin-2-yl]-4,5,6,7-tetrahydro[1,3]thiazolo[5,4-c]pyridine], the IC50 was at most 100 nM.
`Cc1c(-c2cccc(OCCO)c2)cccc1-c1nc2c(s1)CNCC2` [Example 36, 2-{[2′-methyl-3′-(4,5,6,7-tetrahydro[1,3]thiazolo[5,4-c]pyridin-2-yl)biphenyl-3-yl]oxy}ethanol]: the 50% inhibitory concentration (IC50) was 100 to 500 nM.
As for `Cc1c(-c2ccccc2)cccc1-c1nc2c(s1)CN(C1CCOCC1)CC2` [Example 6, 2-(2-methylbiphenyl-3-yl)-5-(tetrahydro-2H-pyran-4-yl)-4,5,6,7-tetrahydro[1,3]thiazolo[5,4-c]pyridine], the IC50 fell in the range of 100 to 500 nM.
Then `N#Cc1c(-c2ccc3c(c2)OCCO3)ccnc1-c1nc2c(s1)CNCC2` [Example 35, 4-(2,3-dihydro-1,4-benzodioxin-6-yl)-2-(4,5,6,7-tetrahydro[1,3]thiazolo[5,4-c]pyridin-2-yl)nicotinonitrile], with 100 to 500 nM; and `Cc1c(-c2ccccc2)cccc1-c1nc2c(s1)CN(CCCC(=O)O)CC2` [Example 8, 4-[2-(2-methylbiphenyl-3-yl)-6,7-dihydro[1,3]thiazolo[5,4-c]pyridin-5(4H)-yl]butanoic acid], with at most 100 nM.
Turning to `COc1cc(OC)c(F)c(-c2cccc(-c3nc4c(s3)CNCC4)c2C)c1F` [Example 37, 2-(2′,6′-difluoro-3′,5′-dimethoxy-2-methylbiphenyl-3-yl)-4,5,6,7-tetrahydro[1,3]thiazolo[5,4-c]pyridine], the IC50 is at most 100 nM.
As to `Cc1c(-c2ccccc2)cccc1-c1nc2c(s1)CN(Cc1cn[nH]c1)CC2` [Example 10, 2-(2-methylbiphenyl-3-yl)-5-(1H-pyrazol-4-ylmethyl)-4,5,6,7-tetrahydro[1,3]thiazolo[5,4-c]pyridine], the IC50 lay within 100 to 500 nM.
Next, `Cc1c(-c2ccccc2)cccc1-n1cc2c(n1)CNCC2` [Example 18, 2-(2-methylbiphenyl-3-yl)-4,5,6,7-tetrahydro-2H-pyrazolo[3,4-c]pyridine]: at most 100 nM.
For `Cc1c(-c2ccccc2)cccc1-c1nc2n(n1)CCNC2` [Example 25, 2-(2-methylbiphenyl-3-yl)-5,6,7,8-tetrahydro[1,2,4]triazolo[1,5-a]pyrazine], the half-maximal inhibitory concentration (IC50) was in the range of 100 to 500 nM.
Take `Cc1c(-c2ccccc2)cccc1-c1nc2c(s1)CN(C[C@H](C)O)CC2` [Example 5, (2S)-1-[2-(2-methylbiphenyl-3-yl)-6,7-dihydro[1,3]thiazolo[5,4-c]pyridin-5(4H)-yl]propan-2-ol]: the 50% inhibitory concentration (IC50) was at most 100 nM.
On to `COc1cc(-c2cccc(-c3nc4c(s3)CNCC4)c2C)ccn1` [Example 30, 2-[3-(2-methoxypyridin-4-yl)-2-methylphenyl]-4,5,6,7-tetrahydro[1,3]thiazolo[5,4-c]pyridine], for which the IC50 lay in the range of 100 to 500 nM.
